System: Pseudomonas aeruginosa PAM1001
Experiment: checkerboard assay (broth microdilution): levofloxacin MIC in presence of efflux pump inhibitor
Type: cell-based
Procedure: For compounds labeled with the prefix ‘M’, potentiation effect is observed by the reduction of the minimum inhibitory concentration of levofloxacin in the presence of the experimental efflux pump inhibitor. The activity of efflux pump inhibitors (EPI) in combination with fluoroquinolones, such as levofloxacin, is assessed by the checkerboard assay (Antimicrobial Combinations. In Antibiotics in Laboratory Medicine, Ed. Victor Lorian, M.D., Fourth edition, 1996, pp 333-338) using broth microdilution method performed as recommended by the National Committee for Clinical Laboratory Standards (1997). Methods for Dilution of Antimicrobial Susceptibility Tests for Bacteria That Grow Aerobically—Fourth Edition; Approved Standard. NCCLS Document M7-A4, Vol 17 No.2). The test organism used is Pseudomonas aeruginosa PAM1001. […] The compounds tabulated below are representative of the described invention.
In these assays, multiple dilutions of two drugs, namely the EPI and levofloxacin, are being tested, alone and in combination, at concentrations equal to, above and below their respective minimal inhibitory concentrations (MICs). In the case of EPI, most of these compounds are devoid of intrinsic antimicrobial activity and are tested up to the maximum concentration of 40 μg/mL. The MIC of levofloxacin against P. aeruginosa PAM1001 is 4 μg/mL.
The EPI tested are readily soluble in water and stock solutions are prepared at a final concentration of 2 mg/mL. Stock solutions are further diluted, according to the needs of a particular assay, in Mueller Hinton Broth (MHB). Stock solution can be stored at −80° C. Quinolones are solubilized according to the instructions of the manufacturers, at a concentration of 1 mg/mL. They are then further diluted in MHB. Stock solution can be stored at −80° C.
The checkerboard assay is performed in microtiter plates. Levofloxacin is diluted in the x axis, each column containing a single concentration of levofloxacin. The EPI is diluted in the y axis, each row containing an equal concentration of EPI. The result of these manipulations is that each well of the microtiter plate contains a unique combination of concentrations of the two agents. Each EPI are tested independently.
The assay is performed in MHB with a final bacterial inoculum of 5×10^5 CFU/mL (from an early-log phase culture). Microtiter plates are incubated during 20 h at 35° C. and are read using a microtiter plate reader (Molecular Devices) at 650 nm as well as visual observation using a microtiterplate reading mirror.

Compound	Levofloxacin MIC Against P. aerugiuosa PAM1001 in Presence of Efflux Pump Inhibitor (EPI), Minimum Inhibitory Concentration (EPI Conc. 0 μg/mL) [µg/mL]	Levofloxacin MIC Against P. aerugiuosa PAM1001 in Presence of Efflux Pump Inhibitor (EPI), Minimum Inhibitory Concentration (EPI Conc. 0.625 μg/mL) [µg/mL]	Levofloxacin MIC Against P. aerugiuosa PAM1001 in Presence of Efflux Pump Inhibitor (EPI), Minimum Inhibitory Concentration (EPI Conc. 1.25 μg/mL) [µg/mL]	Levofloxacin MIC Against P. aerugiuosa PAM1001 in Presence of Efflux Pump Inhibitor (EPI), Minimum Inhibitory Concentration (EPI Conc. 2.5 μg/mL) [µg/mL]	Levofloxacin MIC Against P. aerugiuosa PAM1001 in Presence of Efflux Pump Inhibitor (EPI), Minimum Inhibitory Concentration (EPI Conc. 5 μg/ mL) [µg/mL]	Levofloxacin MIC Against P. aerugiuosa PAM1001 in Presence of Efflux Pump Inhibitor (EPI), Minimum Inhibitory Concentration (EPI Conc. 10 μg/mL) [µg/mL]	Levofloxacin MIC Against P. aerugiuosa PAM1001 in Presence of Efflux Pump Inhibitor (EPI), Minimum Inhibitory Concentration (EPI Conc. 20 μg/mL) [µg/mL]	Levofloxacin MIC Against P. aerugiuosa PAM1001 in Presence of Efflux Pump Inhibitor (EPI), Minimum Inhibitory Concentration (EPI Conc. 40 μg/mL) [µg/mL]
CC(C)CC(NC(=O)C1CC(CN)CN1)C(=O)Nc1cnc2ccccc2c1 [Compound M13, (2R,4R)-4-(Aminomethyl)-N-[(1R)-3-methyl-1-quinolylcarbanioyl)bulyl]-2-pyrrolidinecarboxamide]	4	4	4	2	1	0.06	0.06	0.06
NCC(=O)N[C@H]1CN[C@H](C(=O)NCc2nc3ccccc3n2CCc2ccccc2)C1 [Compound M80, (2S,4R)-4-(2-Aminoacetamido)-N-[(1-(2-phenyl)ethyl-2-benzimidazoly)methyl]-2-pyrrolidinexarboxamide]	4	4	4	4	2	0.25	0.06	0.06
NCC(=O)N[C@H]1CN[C@H](C(=O)N[C@@H](CCc2ccccc2)c2nc3ccccc3[nH]2)C1 [Compound M78]	4	4	4	4	4	2	1	0.125
NCC(=O)N[C@H]1CN[C@H](C(=O)N[C@H](CCc2ccccc2)COc2ccc3ccccc3n2)C1 [Compound M54, (2S,rR)-4-(2-Aminoacetamido)-N-[(1R)-3-phenyl-1-[(2-quinolyloxy)methyl]propyl]-2-pyrrolidinecarboxamide]	4	4	4	4	4	0.125	0.06	0.03
NCCCC1CN[C@H](C(=O)N[C@H](CCc2ccccc2)C(=O)Nc2cnc3ccccc3c2)C1 (mixture of isomers) [Compound M93, (2S,4RS)-4-(3-Aminopropyl)-N-[(1R)-3-phenyl-1-(3-quiolylcarbamoyl)propyl]-2-pyrrolidinecarboxamide]	4	4	2	0.25	0.125	0.015	0.015	0.008
NCC(=O)N[C@@H]1CN[C@@H](C(=O)N[C@H](CCc2ccccc2)C(=O)NCCCc2ccccc2)C1 [Compound M2]	4	4	4	4	2	2	0.25	0.125
NC[C@@H]1CN[C@@H](CO[C@H](CCc2ccccc2)C(=O)Nc2cnc3ccccc3c2)C1 [Compound M70, (2R,4R)-4-(Amiomethyl)-2-[((1R)-3-phenyl-1-(3-quiolylcarbamoyl)propyl)oxymethyl]pyrrolidie]	4	4	2	1	1	0.125	0.125	0.06
CC(C)(C)c1ccc2oc(C(O)[C@@H](CCc3ccccc3)NC(=O)[C@H]3C[C@H](CN)CN3)nc2c1 (mixture of isomers) [Compound M68]	4	4	4	4	4	4	0.5	0.015
NCC(=O)N[C@H]1CN[C@H](c2nc3ccc(Cc4ccccc4)cc3[nH]2)C1 [Compound M73, (2S,4R)-4-(2-Aminoacetamido)-2-(5-benzyl-2-benzmidazolyl)pyrrolidine]	4	4	4	–	–	–	–	–
